Data reported in US20240335439A1, “USE OF AND METHOD FOR TELAPREVIR IN PREPARATION OF DRUG FOR TREATING AN ISCHEMIA/REPERFUSION INJURY AND CYTOPROTECTIVE DRUG” (THE THIRD XIANGYA HOSPITAL OF CENTRAL SOUTH UNIVERSITY, priority 2021, published 2024).

Key:
SH-SY5Y nerve cells = assay: NMDA induced nerve cell injury model of SH-SY5Y cells, MTS viability; type: cell-based; details: 1 mM NMDA 30 minutes, then 24 h culture; telaprevir 1, 5, 10 μM; FIG. 5C
Procedure: SH-SY5Y nerve cells were purchased from the Xiangya Cell Bank of Central South University.
Cell culture method: Following a conventional cell culture method, the above SH-SY5Y nerve cells were cultured in an RPMI 1640 medium (containing 20% of fetal bovine serum). When the cells fused and grew to 80-90%, the cells were digested with a trypsin. After the cells shrank and became round and the intercellular space was obvious, the digestion was immediately terminated with a medium, the cells were dispersed and blown evenly into a single suspension state, passaged in bottles, and cultured in a 37° C. cell incubator containing 5% of CO2.
The SH-SY5Y cells at the fusion rate of 80-90% or more can be seeded on plates. […]
Cell viability was detected by MTS.
The measurement followed the operating instructions of a commercially available MTS kit (Promega (Beijing) Biotech Co., Ltd.). […] The absorbance of the cells at 490 nm was measured by enzyme-linked immunosorbent assay (the absorbance was controlled at 0.7-1.2), where the absorbance value reflected relative cell viability. Calculation: cell viability (%)=absorbance of the drug group/absorbance of the control group×100%. When the absorbance value of each group was calculated, the absorbance value of the background blank control group was first subtracted.

[1] = system: Alzheimer's disease mouse models; assay: Alzheimer's disease mouse model (Aβ1-42 into hippocampus), Morris water maze experiment; type: in vivo, ICR mice; details: telaprevir 40 mg/kg intramuscular daily for 17 days, #P<0.05 vs AD+vehicle
Procedure: Experimental animals: 7-week-old healthy male ICR mice weighing 25-30 g. The experimental animals were raised for one week in an environment with a temperature of 25° C., a relative humidity of 60%, free drinking water, and timed and quantified feeding, and then administered according to the requirements of each experimental group.
Building of an Alzheimer's disease mouse model and drug treatment: Aβ1-42 was purchased from MCE Reagent Company, dissolved in DMSO, diluted with physiological saline to 2 μg/μL, and incubated in an incubator at 37° C. for 7 days to convert the Aβ1-42 into an aggregated state. […]
A learning and memory ability and cognitive function of mice were detected by a Morris water maze experiment and a new/old object recognition experiment.
According to the requirements of the water maze experiment, a Morris water maze was divided into four quadrants, a platform having a diameter of 12 cm and a height of 35 cm was placed in one of the quadrants, water was added to submerge the platform 1-2 cm, and the pool water was dyed black with carbon ink. After the positioning navigation experiment lasted for 5 days, the platform was removed for a spatial probe experiment, and the time for the mice to reach the original platform position (namely, incubation period) and the number of times they crossed the platform were recorded.

For `CCC[C@H](NC(=O)[C@@H]1[C@H]2CCC[C@H]2CN1C(=O)[C@@H](NC(=O)[C@@H](NC(=O)c1cnccn1)C1CCCCC1)C(C)(C)C)C(=O)C(=O)NC1CC1` [telaprevir], the “cell viability (MTS) of NMDA treated SH-SY5Y cells” value (SH-SY5Y nerve cells) was “significantly inhibit a decrease”, the “time to find the original platform position (incubation period), Morris water maze” value ([1]; FIG. 6A) was “significant decrease” and the “number of times they crossed the platform, Morris water maze” value ([1]; FIG. 6B) was “significant increase”.
